# Legend:
# [1] = system: Bacillus pumilus (CNCM 7618); assay: Bactericidal action: growth inhibition test; format: cell-based; conditions: 100 µg/ml in 60% Dimethylsulfoxyd / 40% destilliertem Wasser, after 24 Stunden
# Protocol: (§1) Das Produkt der Formel II wurde an folgenden Mikroorganismen geprüft: • Bacillus pumilus (CNCM 7618) und • Bacillus subtilis (ATCC 6533)
# (§2) Es wurde auf eine Konzentration von 100 µg/ml in einem Gemisch aus 60% Dimethylsulfoxyd und 40% destilliertem Wasser solubilisiert.
# [2] = system: Bacillus subtilis (ATCC 6533); assay: Bactericidal action: growth inhibition test; format: cell-based; conditions: 100 µg/ml in 60% Dimethylsulfoxyd / 40% destilliertem Wasser, after 24 Stunden
# Protocol: as §1, §2
smiles,measurement,setting,value
"COc1cc(O)c2c(c1)C(=O)c1cc3c(c(O)c1C2=O)C(O)CC(C)(O)C3=O (single isomer, unassigned; (+)) [Verbindung II, (+)-8-Desmethoxy-steffimycinon]",Wachstum,[1],völlig gehemmt
same,Wachstum,[2],völlig gehemmt

# Source: patent EP0168515A2, “Process for the preparation of steffimycinones, analogues of steffimycinones so obtained, intermediates useful in the synthesis of those compounds, use of these compounds as antibacterials acid for the synthesis of antitumor products” (LABORATOIRES HOECHST S.A., priority 1984, dated 1986)
